Measurements: US20230027066A1 (Urovant Sciences GmbH, priority 2019, published 2023)

Test system: men and women with overactive bladder
Assay: Phase 3 study of vibegron 75 mg vs placebo and tolterodine ER 4 mg, 12 weeks, efficacy (voiding and urine volume diary)
Type: in vivo, human
Conditions: for Patients with at Least 75% Reduction in Total Incontinence, Adjusted (%) / Patients with at Least 75% Reduction in Total Incontinence, Adjusted n / Patients with at Least 75% Reduction in Total Incontinence, Unadjusted (%) / Patients with at Least 75% Reduction in Total Incontinence, Unadjusted n / Total Incontinence 75% responders, Active - Placebo CMH Difference: FAS-I
Description: Enrollment of patients included individuals with OAB Wet (those with UUI, the involuntary loss of urine accompanied by urgency) and OAB Dry (those without UUI). A total of 1,518 patients were randomized across 215 study sites into one of three groups for a 12-week treatment period.
The study consisted of a Screening Period (1 to 5 weeks), a single-blind Run-in Period (2 weeks), a randomized double-blind Treatment Period (12 weeks), and a Follow-up Period (4 weeks).
Tolterodine ER 4 mg was the active control. […] Between the Baseline and Week 12 Visits, patients had study assessments at Week 4 and Week 8.
The Patient Voiding Diary was used by participants (via the eDiary or paper Diary) to record the frequency of daily OAB symptoms including all micturitions, urgency, incontinence, and main reason for incontinence by selecting the respective box for each symptom occurring during the course of a given day and night.
Urine volume data were collected separately by patients using the Urine Volume component of the eDiary, or the paper Urine Volume Chart. The Urine Volume Chart is a tool used in clinical practice and clinical investigation to assess voiding functions over a 24-hour period and is regarded as a useful instrument in the investigation of patients with voiding symptoms. Urine volume may be collected during any one (1) of the 7 Diary Days prior to the visit, and it should be recorded for ˜24 hours starting from the time the patient gets up for the day and continues until the time the patient gets up for the day on the next day.
For the purpose of this study, the number of micturitions was defined as the number of times a patient has voided in the toilet as indicated on the Patient Voiding Diary. Average daily micturitions were calculated using the daily entries in the Patient Voiding Diary, which was completed over the 7 days prior to each study visit. Average daily number of micturitions were calculated as the total number of micturitions that occurred on a Complete Diary Day divided by the number of Complete Diary Days in the Patient Voiding Diary. A complete diary day required confirmation by the patient in the Patient Voiding Diary that all voids and leakages had been recorded for the diary day. Baseline was defined as the average number of micturitions occurring during the last evaluable diary prior to the Baseline Visit.
The number of UUI episodes was defined as the number of times a patient had checked “urge” as the reason for accidental urine leakage. Average daily UUI episodes at each study visit were calculated in the same manner as described above for the micturition endpoint. The UUI endpoint were analyzed using only OAB Wet patients.
For the analysis of the co-primary endpoints (change from baseline in average number of daily micturitions at Week 12 and change from baseline in average number of daily urge urinary incontinence episodes at Week 12, and placebo adjustment of each), a mixed model for repeated measure (MMRM) with restricted maximum likelihood estimation was used. This model corrects for dropout and accounts for the fact that measurements taken on the same patient over time tend to be correlated by using all available information on patients within the same covariate set to derive an estimate of the treatment effect for a dropout-free population. The analysis model for each efficacy endpoint includes terms for treatment, visit, OAB Type (Wet vs Dry), Sex (Female vs Male), Region (US vs Rest of World), baseline score, and interaction of visit by treatment.
Primary inferences were drawn from treatment differences for the changes from baseline derived from the MMRM models at Week 12. As part of secondary objectives, the treatment differences for each post baseline visit were also derived using the same MMRM model. […]

[1] = Week 12, events of Events/Censored
[2] = Week 12, subpopulation Age ≥65 years
[3] = vibegron 75 mg or tolterodine ER 4 mg
[4] = vibegron 75 mg or tolterodine ER 4 mg once daily
[5] = vibegron 75 mg or tolterodine ER 4 mg once daily, OAB Wet
[6] = vibegron 75 mg or tolterodine ER 4 mg, OAB Wet

## Cc1ccc(O)c([C@H](CCN(C(C)C)C(C)C)c2ccccc2)c1 [Tolterodine ER, tolterodine, reference compound]
Week 12, co-primary endpoint
  Micturitions, Week 12 LS Mean Change from Baseline (Placebo-Adjusted): −0.3
  UUI Episodes, Week 12 LS Mean Change from Baseline (Placebo-Adjusted): −0.4
[1]
  First 50% Reduction in Urgency Episodes, Events: 164/253
  First 100% Reduction in UUI Episodes, Events: 74/245
Week 12, secondary endpoint
  Total Incontinence Episodes, Week 12 LS Mean Change from Baseline (Placebo-Adjusted): −0.5
  Urgency Episodes, Week 12 LS Mean Change from Baseline (Placebo-Adjusted): −0.4
[2]
  Micturitions, change at Week 12, mean (SD): −1.48 (2.15)
  UUI Episodes, change at Week 12, mean (SD): −1.80 (2.41)
Week 12, subpopulation Age ≥65 years, posthoc analysis
  Daily Urgency, change at Week 12: −2.1
Week 12, ≥65 yrs
  Micturitions: Week 12 CFB Mean (descriptive statistics): −1.48
Baseline to Week 2
  Patients with at Least 75% Reduction in Total Incontinence, Adjusted (%): 16.5%
  Patients with at Least 75% Reduction in Total Incontinence, Adjusted n: 53
  Patients with at Least 75% Reduction in Total Incontinence, Unadjusted (%): 18.2%
  Patients with at Least 75% Reduction in Total Incontinence, Unadjusted n: 58
  Total Incontinence 75% responders, Active - Placebo CMH Difference: 3.6
Baseline to Week 4
  Patients with at Least 75% Reduction in Total Incontinence, Adjusted (%): 23.5%
  Patients with at Least 75% Reduction in Total Incontinence, Adjusted n: 75
  Patients with at Least 75% Reduction in Total Incontinence, Unadjusted (%): 28.2%
  Patients with at Least 75% Reduction in Total Incontinence, Unadjusted n: 90
  Total Incontinence 75% responders, Active - Placebo CMH Difference: 3.7
Baseline to Week 8
  Patients with at Least 75% Reduction in Total Incontinence, Adjusted (%): 32.5%
  Patients with at Least 75% Reduction in Total Incontinence, Adjusted n: 104
  Patients with at Least 75% Reduction in Total Incontinence, Unadjusted (%): 36.4%
  Patients with at Least 75% Reduction in Total Incontinence, Unadjusted n: 116
  Total Incontinence 75% responders, Active - Placebo CMH Difference: 5.1
Baseline to Week 12
  Patients with at Least 75% Reduction in Total Incontinence, Adjusted (%): 39.9%
  Patients with at Least 75% Reduction in Total Incontinence, Adjusted n: 127
  Patients with at Least 75% Reduction in Total Incontinence, Unadjusted (%): 45.1%
  Patients with at Least 75% Reduction in Total Incontinence, Unadjusted n: 144
  Total Incontinence 75% responders, Active - Placebo CMH Difference: 8.4
Subgroup Age <65 years, vibegron 75 mg or tolterodine ER 4 mg
  UUI, Week 12 LS mean change from baseline (placebo adjusted) (95% CI): −0.2 (−0.6 to 0.2)
Subgroup Age ≥65 years, vibegron 75 mg or tolterodine ER 4 mg
  UUI, Week 12 LS mean change from baseline (placebo adjusted) (95% CI): −0.6 (−1.1 to −0.1)
Subgroup Age ≥75 years (posthoc analysis), vibegron 75 mg or tolterodine ER 4 mg
  UUI, Week 12 LS mean change from baseline (placebo adjusted) (95% CI): −1.6 (−2.5 to −0.7)
Subgroup Females, vibegron 75 mg or tolterodine ER 4 mg
  UUI, Week 12 LS mean change from baseline (placebo adjusted) (95% CI): −0.4 (−0.7 to −0.1)
Subgroup Males, vibegron 75 mg or tolterodine ER 4 mg
  UUI, Week 12 LS mean change from baseline (placebo adjusted) (95% CI): −0.5 (−1.4 to 0.4)
Subgroup Non-White, vibegron 75 mg or tolterodine ER 4 mg
  UUI, Week 12 LS mean change from baseline (placebo adjusted) (95% CI): 0.1 (−0.6 to 0.7)
Subgroup Region: Non-US, vibegron 75 mg or tolterodine ER 4 mg
  UUI, Week 12 LS mean change from baseline (placebo adjusted) (95% CI): −0.6 (−1.5 to 0.2)
Subgroup Region: US, vibegron 75 mg or tolterodine ER 4 mg
  UUI, Week 12 LS mean change from baseline (placebo adjusted) (95% CI): −0.3 (−0.7 to 0.0)
Subgroup White, vibegron 75 mg or tolterodine ER 4 mg
  UUI, Week 12 LS mean change from baseline (placebo adjusted) (95% CI): −0.5 (−0.8 to −0.2)
[3]
  average volume voided, placebo-adjusted mean change from baseline, week 12: 13.3 mL
  placebo-adjusted mean total daily incontinence episodes, week 12: −0.5 episodes
  proportion of patients (UUI responders) with 75% or more reduction in daily UUI episodes, week 12: 42.2%
[4]
  Micturitions, active-placebo LS mean difference, Week 2: −0.3
  Micturitions, active-placebo LS mean difference, Week 4: −0.4
  Micturitions, active-placebo LS mean difference, Week 8: −0.4
  Micturitions, active-placebo LS mean difference, Week 12: −0.3
  Micturitions, average daily number, Week 2 mean: 10.40
  Micturitions, average daily number, Week 4 mean: 10.10
  Micturitions, average daily number, Week 8 mean: 9.80
  Micturitions, average daily number, Week 12 mean: 9.58
  Micturitions, change from baseline LS mean, Week 2: −0.6
  Micturitions, change from baseline LS mean, Week 4: −0.9
  Micturitions, change from baseline LS mean, Week 8: −1.2
  Micturitions, change from baseline LS mean, Week 12: −1.6
[5]
  UUI episodes, active-placebo LS mean difference, Week 2: −0.4
  UUI episodes, active-placebo LS mean difference, Week 4: −0.4
  UUI episodes, active-placebo LS mean difference, Week 8: −0.4
  UUI episodes, average daily number, Week 2 mean: 2.24
  UUI episodes, average daily number, Week 4 mean: 2.06
  UUI episodes, average daily number, Week 8 mean: 1.74
  UUI episodes, average daily number, Week 12 mean: 1.55
  UUI episodes, change from baseline LS mean, Week 2: −1.2
  UUI episodes, change from baseline LS mean, Week 4: −1.4
  UUI episodes, change from baseline LS mean, Week 8: −1.6
  UUI episodes, change from baseline LS mean, Week 12: −1.8
Vibegron 75 mg or tolterodine ER 4 mg, Cox model with sex as covariate
  Time to first 75% reduction in UUI episodes, hazard ratio compared to placebo (proportional hazards): 1.276
[6]
  Estimated incidence of subjects with 75% decrease from baseline in UUI episodes, Week 2: 18.8
  Estimated incidence of subjects with 75% decrease from baseline in UUI episodes, Week 4: 20.7
  Estimated incidence of subjects with 75% decrease from baseline in UUI episodes, Week 8: 34.3
  Estimated incidence of subjects with 75% decrease from baseline in UUI episodes, Week 12: 45.7
  First 75% reduction in UUI episodes, Events/Censored, Week 2: 60/259
  First 75% reduction in UUI episodes, Events/Censored, Week 4: 66/253
  First 75% reduction in UUI episodes, Events/Censored, Week 8: 107/212
  First 75% reduction in UUI episodes, Events/Censored, Week 12: 140/179
  Overall time to first 75% decrease in UUI episodes, 25th percentile: 4.1 weeks
  Overall time to first 75% decrease in UUI episodes, 75th percentile: 14.2 weeks
  Overall time to first 75% decrease in UUI episodes, median (95% CI): 12.1 (8.6 to 12.3) weeks
  Time to first 75% decrease in UUI episodes, Events/Censored (overall): 166/153
